In the Kinase Knowledgebase extract (Sharma et al. 2016):

What follows are molecules tested against CDK2 (human) (UniProt P24941) (assay: Enzyme Assay).

IC50, ≤ 1000 nM:
CN1CCN(c2ccc3cc2COCC=CCn2ccc4ccc(cc42)-c2ccnc(n2)N3)CC1
C1=CCn2ccc3ccc(cc32)-c2ccnc(n2)Nc2ccc(OCCN3CCCC3)c(c2)COC1
O=C(CCN1CCCCC1)Nc1ccc2cc1OCCC=CCn1ccc3ccc(cc31)-c1ccnc(n1)N2
C1=CCOCc2cc(ccc2OCCN2CCCC2)Nc2nccc(n2)-c2ccc3ccn(c3c2)CC1
C1=CCn2ccc3ccc(cc32)-c2ccnc(n2)Nc2cccc(c2)OCC1
Cc1cnc2nc1-c1ccc3ccn(c3c1)CC=CCOCc1cc(ccc1OCCN1CCCC1)N2
CCN(CC)CCNCCOc1ccc2cc1COCC=CCn1ccc3ccc(cc31)-c1ccnc(n1)N2
C1=CCOCc2cc(ccc2OCCN2CCCC2)Nc2nccc(n2)-c2ccc3c(ccn3CC1)c2
C1=CCn2ccc3ccc(cc32)-c2ccnc(n2)Nc2cccc(c2)COC1
CN1CC=CCCn2ccc3ccc(cc32)-c2ccnc(n2)Nc2cccc(c2)C1
CC(=O)NCCNCCOc1ccc2cc1COCC=CCn1ccc3ccc(cc31)-c1ccnc(n1)N2
ClCCOc1ccc2cc1COCC=CCn1ccc3ccc(cc31)-c1ccnc(n1)N2
O=C(CCN1CCCCC1)Nc1ccc2cc1OCC=CCn1ccc3ccc(cc31)-c1ccnc(n1)N2
